What was measured:
Experiment in all cases: cells
Assay type in all cases: functional, cell-based
YH-13 = conditions: Homo sapiens
Description: SANGER: Inhibition of human YH-13 cell growth in a cell viability assay.

CWR22R = conditions: Homo sapiens, 22Rv1
Description: SANGER: Inhibition of human 22RV1 cell growth in a cell viability assay.

EW-22 = conditions: Homo sapiens
Description: SANGER: Inhibition of human EW-22 cell growth in a cell viability assay.

M059J = conditions: Homo sapiens
Description: SANGER: Inhibition of human M059J cell growth in a cell viability assay.

KYSE-150 cell line = conditions: Homo sapiens
Description: SANGER: Inhibition of human KYSE-150 cell growth in a cell viability assay.

HTC-C3 = conditions: Homo sapiens
Description: SANGER: Inhibition of human HTC-C3 cell growth in a cell viability assay.

HT-29 = conditions: Homo sapiens
Description: SANGER: Inhibition of human HT-29 cell growth in a cell viability assay.

NCI-H2122 = conditions: Homo sapiens
Description: SANGER: Inhibition of human NCI-H2122 cell growth in a cell viability assay.

SW1710 = conditions: Homo sapiens
Description: SANGER: Inhibition of human SW1710 cell growth in a cell viability assay.

BT-549 = conditions: Homo sapiens
Description: SANGER: Inhibition of human BT-549 cell growth in a cell viability assay.

CAL-51 = conditions: Homo sapiens
Description: SANGER: Inhibition of human CAL-51 cell growth in a cell viability assay.

BEN = conditions: Homo sapiens
Description: SANGER: Inhibition of human BEN cell growth in a cell viability assay.

HCC1806 = conditions: Homo sapiens
Description: SANGER: Inhibition of human HCC1806 cell growth in a cell viability assay.

HSC-4 = conditions: Homo sapiens
Description: SANGER: Inhibition of human HSC-4 cell growth in a cell viability assay.

HCT-15 = conditions: Homo sapiens
Description: SANGER: Inhibition of human HCT-15 cell growth in a cell viability assay.

P12-Ichikawa = conditions: Homo sapiens
U-118-MG = conditions: Homo sapiens
Description: SANGER: Inhibition of human U-118-MG cell growth in a cell viability assay.

NCI-H2342 = conditions: Homo sapiens
Description: SANGER: Inhibition of human NCI-H2342 cell growth in a cell viability assay.

SCC-25 = conditions: Homo sapiens
Description: SANGER: Inhibition of human SCC-25 cell growth in a cell viability assay.

HN = conditions: Homo sapiens
Description: SANGER: Inhibition of human HN cell growth in a cell viability assay.

RCM-1 = conditions: Homo sapiens
Description: SANGER: Inhibition of human RCM-1 cell growth in a cell viability assay.

HuO9 = conditions: Homo sapiens
Description: SANGER: Inhibition of human HuO9 cell growth in a cell viability assay.

NCI-N87 = conditions: Homo sapiens
Description: SANGER: Inhibition of human NCI-N87 cell growth in a cell viability assay.

SK-MES-1 = conditions: Homo sapiens
Description: SANGER: Inhibition of human SK-MES-1 cell growth in a cell viability assay.

HuO-3N1 = conditions: Homo sapiens
Description: SANGER: Inhibition of human HuO-3N1 cell growth in a cell viability assay.

BCPAP = conditions: Homo sapiens
Description: SANGER: Inhibition of human BCPAP cell growth in a cell viability assay.

RMG-I = conditions: Homo sapiens
Description: SANGER: Inhibition of human RMG-I cell growth in a cell viability assay.

MDA-MB-231 = conditions: Homo sapiens
Description: SANGER: Inhibition of human MDA-MB-231 cell growth in a cell viability assay.

CAL-39 = conditions: Homo sapiens
Description: SANGER: Inhibition of human CAL-39 cell growth in a cell viability assay.

D-336MG = conditions: Homo sapiens
Description: SANGER: Inhibition of human D-336MG cell growth in a cell viability assay.

HCC1395 = conditions: Homo sapiens
Description: SANGER: Inhibition of human HCC1395 cell growth in a cell viability assay.

SK-OV-3 = conditions: Homo sapiens
Description: SANGER: Inhibition of human SK-OV-3 cell growth in a cell viability assay.

TI-73 = conditions: Homo sapiens
Description: SANGER: Inhibition of human TI-73 cell growth in a cell viability assay.

HEC-1 = conditions: Homo sapiens
Description: SANGER: Inhibition of human HEC-1 cell growth in a cell viability assay.

NCI-H1651 = conditions: Homo sapiens
Description: SANGER: Inhibition of human NCI-H1651 cell growth in a cell viability assay.

Calu-3 = conditions: Homo sapiens
Description: SANGER: Inhibition of human Calu-3 cell growth in a cell viability assay.

FTC-133 = conditions: Homo sapiens
MC-IXC = conditions: Homo sapiens
Description: SANGER: Inhibition of human MC-IXC cell growth in a cell viability assay.

OE33 = conditions: Homo sapiens
Description: SANGER: Inhibition of human OE33 cell growth in a cell viability assay.

SK-MEL-30 = conditions: Homo sapiens
Description: SANGER: Inhibition of human SK-MEL-30 cell growth in a cell viability assay.

NCI-H520 = conditions: Homo sapiens
Description: SANGER: Inhibition of human NCI-H520 cell growth in a cell viability assay.

NCI-H727 = conditions: Homo sapiens
Description: SANGER: Inhibition of human NCI-H727 cell growth in a cell viability assay.

MDA-MB-361 = conditions: Homo sapiens
BFTC-905 = conditions: Homo sapiens
Description: SANGER: Inhibition of human BFTC-905 cell growth in a cell viability assay.

MKN-28 = conditions: Homo sapiens
Description: SANGER: Inhibition of human MKN28 cell growth in a cell viability assay.

CAL-54 = conditions: Homo sapiens
Description: SANGER: Inhibition of human CAL-54 cell growth in a cell viability assay.

ChaGo-K-1 = conditions: Homo sapiens
Description: SANGER: Inhibition of human ChaGo-K-1 cell growth in a cell viability assay.

COR-L23 = conditions: Homo sapiens
Description: SANGER: Inhibition of human COR-L23 cell growth in a cell viability assay.

RO82-W-1 = conditions: Homo sapiens
Description: SANGER: Inhibition of human RO82-W-1 cell growth in a cell viability assay.

T98G = conditions: Homo sapiens
Description: SANGER: Inhibition of human T98G cell growth in a cell viability assay.

DOK = conditions: Homo sapiens
Description: SANGER: Inhibition of human DOK cell growth in a cell viability assay.

## Cn1cc(/C=C2\C(=O)Nc3cccnc32)c2ccccc21
YH-13
  IC50: > 2000 nM
CWR22R
  IC50: > 2000 nM
EW-22
  IC50: > 2000 nM
M059J
  IC50: > 2000 nM
KYSE-150 cell line
  IC50: > 2000 nM
HTC-C3
  IC50: > 2000 nM
HT-29
  IC50: > 2000 nM
NCI-H2122
  IC50: > 2000 nM
SW1710
  IC50: > 2000 nM
BT-549
  IC50: > 2000 nM
CAL-51
  IC50: > 2000 nM
BEN
  IC50: > 2000 nM
HCC1806
  IC50: > 2000 nM
HSC-4
  IC50: 1950 nM
HCT-15
  IC50: > 2000 nM
P12-Ichikawa
  IC50: > 2000 nM
U-118-MG
  IC50: > 2000 nM
NCI-H2342
  IC50: > 2000 nM
SCC-25
  IC50: > 2000 nM
HN
  IC50: > 2000 nM
RCM-1
  IC50: > 2000 nM
HuO9
  IC50: > 2000 nM
NCI-N87
  IC50: > 2000 nM
SK-MES-1
  IC50: > 2000 nM
HuO-3N1
  IC50: > 2000 nM
BCPAP
  IC50: > 2000 nM
RMG-I
  IC50: > 2000 nM
MDA-MB-231
  IC50: > 2000 nM
CAL-39
  IC50: > 2000 nM
D-336MG
  IC50: > 2000 nM
HCC1395
  IC50: > 2000 nM
SK-OV-3
  IC50: 397 nM
TI-73
  IC50: > 2000 nM
HEC-1
  IC50: > 2000 nM
NCI-H1651
  IC50: > 2000 nM
Calu-3
  IC50: > 2000 nM
FTC-133
  IC50: > 2000 nM
MC-IXC
  IC50: > 2000 nM
OE33
  IC50: > 2000 nM
SK-MEL-30
  IC50: > 2000 nM
NCI-H520
  IC50: > 2000 nM
NCI-H727
  IC50: > 2000 nM
MDA-MB-361
  IC50: > 2000 nM
BFTC-905
  IC50: > 2000 nM
MKN-28
  IC50: > 2000 nM
CAL-54
  IC50: > 2000 nM
ChaGo-K-1
  IC50: > 2000 nM
COR-L23
  IC50: > 2000 nM
RO82-W-1
  IC50: > 2000 nM
T98G
  IC50: > 2000 nM
DOK
  IC50: > 2000 nM

## COc1cc(Nc2c(C#N)cnc3cc(OCCCN4CCN(C)CC4)c(OC)cc23)c(Cl)cc1Cl [BOSUTINIB]
YH-13
  IC50: > 2000 nM
CWR22R
  IC50: > 2000 nM
EW-22
  IC50: > 2000 nM
M059J
  IC50: > 2000 nM
KYSE-150 cell line
  IC50: > 2000 nM
HTC-C3
  IC50: > 2000 nM
HT-29
  IC50: > 2000 nM
NCI-H2122
  IC50: > 2000 nM
SW1710
  IC50: > 2000 nM
BT-549
  IC50: > 2000 nM
CAL-51
  IC50: > 2000 nM
BEN
  IC50: > 2000 nM
HCC1806
  IC50: 352 nM
HSC-4
  IC50: 172 nM
HCT-15
  IC50: > 2000 nM
P12-Ichikawa
  IC50: > 2000 nM
U-118-MG
  IC50: > 2000 nM
NCI-H2342
  IC50: > 2000 nM
SCC-25
  IC50: > 2000 nM
HN
  IC50: 1900 nM
RCM-1
  IC50: > 2000 nM
HuO9
  IC50: > 2000 nM
NCI-N87
  IC50: > 2000 nM
SK-MES-1
  IC50: > 2000 nM
HuO-3N1
  IC50: > 2000 nM
BCPAP
  IC50: > 2000 nM
RMG-I
  IC50: > 2000 nM
MDA-MB-231
  IC50: > 2000 nM
CAL-39
  IC50: > 2000 nM
D-336MG
  IC50: > 2000 nM
HCC1395
  IC50: > 2000 nM
SK-OV-3
  IC50: > 2000 nM
TI-73
  IC50: 1020 nM
HEC-1
  IC50: > 2000 nM
NCI-H1651
  IC50: > 2000 nM
Calu-3
  IC50: > 2000 nM
FTC-133
  IC50: > 2000 nM
MC-IXC
  IC50: > 2000 nM
OE33
  IC50: > 2000 nM
SK-MEL-30
  IC50: > 2000 nM
NCI-H520
  IC50: > 2000 nM
NCI-H727
  IC50: > 2000 nM
MDA-MB-361
  IC50: > 2000 nM
BFTC-905
  IC50: > 2000 nM
MKN-28
  IC50: > 2000 nM
CAL-54
  IC50: 1660 nM
ChaGo-K-1
  IC50: > 2000 nM
COR-L23
  IC50: > 2000 nM
RO82-W-1
  IC50: > 2000 nM
T98G
  IC50: > 2000 nM
DOK
  IC50: 378 nM
